For experiment [1], the system named is NF-κB activation. The experiment can be described thus: Inflammasome priming by LPS in THP-1 cells (immunoblot). The experiment is classed as cell-based, human. The settings on record: for NF-κB activation / pro-IL-1β induction: 30 μM, 1 hr before LPS; for NLRP3 induction: 1 hour before LPS. The method, then: Immunoblot analysis: cell extracts were prepared using RIPA buffer (50 mM Tris-HCl pH 7.4, 150 mM NaCl, 1 mM EDTA, 1% Triton X-100, 0.1% SDS, 0.5% deoxycholate) supplemented with a complete protease inhibitor cocktail (Roche) and a PhosSTOP phosphatase inhibitor cocktail (Roche). Samples were subjected to SDS-PAGE and the resolved proteins were then transferred to a PVDF membrane (Millipore). Immunoblots were probed with indicated antibodies and visualized using a SuperSignal West Pico chemiluminescence ECL kit (Pierce).
Because both disulfiram and Bay 11-7082 non-specifically modify reactive Cys, their effects on the steps leading to pyroptosis and inflammatory caspase activation were next analyzed. Some of the genes that participate in the canonical inflammasome pathway are not expressed in unstimulated cells and their expression needs to be induced, often by binding to cell surface sensors of pathogen and danger-associated molecular patterns, such as Toll-like receptors (TLR), in a process called priming. Bay 11-7082 is known to inhibit NF-κB activation, a key transcription factor in priming. The effect of disulfiram and Bay 11-7082 on priming were first examined (FIG. 45). NF-κB activation was assessed by examining IκBα phosphorylation and degradation and RelA (p65) phosphorylation. Induction of pro-IL-1β was assessed by immunoblot for pro-IL1β protein. In the absence of disulfiram or Bay 11-7082, phosphorylation of p65 was first detected 30 min after adding LPS and persisted for 4 hrs, phosphorylation and reduced IκBα. were detected 1 hr after adding LPS, and increased pro-IL-1β was detected 4 hrs after adding LPS. […] Thus, disulfiram and Bay 11-7082 both inhibit priming.
Cell death was determined by CytoTox96 assay. […] Cell death was determined by CytoTox96 assay. […] Shown are immunoblots of whole cell lysates harvested 0.5 hr later. […] Representative images of ASC specks (arrowheads) and mean±s.d. percent of cells with ASC specks analyzed 20 min later (FIG. 47). Whole cell lysates (WCL) and culture supernatants (Sup) were harvested 30 min after adding nigericin and immunoblotted with the indicated antibodies (FIG. 50). Caspase-1 activity was assayed 30 min after adding nigericin using a cell-permeable fluorescence dye FAM-YVAD-FMK (FIG. 52). […] Representative images of ASC specks (arrowheads) and mean±s.d. percent of cells with ASC specks analyzed 20 min later (FIGS. 48 and 49). Whole cell lysates (WCL) and culture supernatants (Sup), harvested 30 min after adding nigericin, were analyzed by immunoblot (FIG. 51). […] The Figures show representative confocal microscopy images and quantification of proportion of cells with GSDMD membrane staining and pyroptotic bubbles. Arrows indicate GSDMD staining of pyroptotic bubbles. […] FIGS. 57 and 58, dose response curve of the effect of Bay 11-7082 on caspase-1 (FIG. 57) and caspase-11 (FIG. 58) activity against a fluorescent peptide substrate. FIGS. 59 and 60 show MS/MS spectra of the Cys191-containing GSDMD peptide […] (FIG. 60). FIGS. 61 and 62 show dose response curve of the effect of Bay 11-7082 on liposome leakage induced by 0.3 μM human GSDMD-3C (FIG. 61) or mouse GSDMA3-3C (FIG. 62) plus 0.15 μM 3C protease. […] 2-fold dilutions of Bay 11-7082 from 5-40 μM were used. Graphs show the mean±s.d; data are representative of three independent experiments. *P<0.05, **P<0.01.
To elucidate the cellular mechanism of pyroptosis inhibition by disulfiram, its effects on the entire inflammasome activation pathway were analyzed. Some of the genes that participate in the canonical inflammasome pathway are not expressed in unstimulated cells and their expression needs to be induced, often by binding to cell surface sensors of pathogen and danger-associated molecular patterns, such as Toll-like receptors (TLR), in a process called priming. […]
Background: A western blot detects proteins with antibodies after separation by electrophoresis.

The target in experiment [2] is C191A GSDMD (Homo sapiens, UniProt P57764, C191A).
Chain of C191A GSDMD (P57764 whole entry C191A): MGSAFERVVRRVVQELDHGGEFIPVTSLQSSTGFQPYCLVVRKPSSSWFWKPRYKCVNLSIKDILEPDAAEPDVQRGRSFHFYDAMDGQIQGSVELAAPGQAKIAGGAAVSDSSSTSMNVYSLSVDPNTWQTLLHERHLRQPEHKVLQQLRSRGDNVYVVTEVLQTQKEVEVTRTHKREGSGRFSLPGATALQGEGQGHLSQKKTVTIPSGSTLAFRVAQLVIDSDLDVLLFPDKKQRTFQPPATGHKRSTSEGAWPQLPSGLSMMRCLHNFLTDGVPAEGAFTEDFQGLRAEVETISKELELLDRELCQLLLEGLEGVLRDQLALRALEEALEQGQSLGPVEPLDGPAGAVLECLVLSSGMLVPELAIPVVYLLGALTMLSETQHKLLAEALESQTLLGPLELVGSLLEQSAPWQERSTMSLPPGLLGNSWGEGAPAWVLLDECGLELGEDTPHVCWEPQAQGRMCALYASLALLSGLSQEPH
Procedure: (§1) Liposome leakage assay: fluorogenic liposome leakage assay detects leakage of Tb^3+ from Tb^3+-loaded liposomes incubated with GSDMD and caspase-11 (See References 7 and 9). Liposome leakage was detected by an increase in fluorescence when Tb^3+ bound to dipicolinic acid (DPA) in Buffer C. […] The fluorescence intensity of the well was measured at 545 nm with an excitation of 276 nm 1 hr after addition of caspase-11 using a Perkin Elmer EnVision plate reader. The final percent inhibition was calculated as [(fluorescencetest compound−fluorescencenegative control)/(fluorescencepositive control−fluorescencenegative control)]×100, where a well with GSDMD without the test compound was used as positive control, and a well without caspase-11 was used as negative control.
Experiment [3] deals with mouse iBMDMs. As to the kind of experiment: AIM2 inflammasome cell death, iBMDMs transfected with poly(dA:dT). The experiment is classed as cell-based. The following applies: poly(dA:dT) transfection.
In experiment [4] the test system is IL-1β. The experiment can be described thus: IL-1β secretion by ELISA, iBMDM with LPS transfection. The experiment is classed as cell-based, mouse. The following applies: 40 μM. The method, then: Measurement of cytokines: concentrations of IL-1 (3 in culture supernatants or mouse serum were measured by ELISA kit (R&D Systems) according to the manufacturer's instructions. […] The number of surviving cells was determined by CellTiter-Glo assay (FIGS. 4 and 6) and IL-1β in culture supernatants was assessed by ELISA (FIG. 8) 2 hrs later. […] The number of surviving cells was determined by CellTiter-Glo assay (FIGS. 5 and 7) and IL-1β in culture supernatants was assessed by ELISA (FIG. 9) 2.5 hrs later.
On the technique in general: In an ELISA, binding on a coated surface is turned into a signal by an enzyme label.

Experiment [5] relates to LPS-induced sepsis in C57BL/6 mice. As to the kind of experiment: LPS-induced sepsis in mice, survival. The experiment is classed as in vivo, mouse. The method, then:
Mice. 8-week-old female C57BL/6 wild-type mice were purchased from The Jackson Laboratory and maintained at the SPF facility at Harvard Medical School. All mouse experiments were conducted using protocols approved by the Animal Care and Use Committees of Boston Children's Hospital and Harvard Medical School.
Drug administration and LPS-induced sepsis in mice. […] In the indicated group of mice in FIG. 5h, copper gluconate (0.15 mg/kg) was administered intraperitoneally 6 hr prior to the first injection of DSF. Sepsis was induced in C57BL/6 mice (8-10 weeks old) by intraperitoneal injection of LPS (E. coli O111:B4) at indicated concentrations. In some experiments, mice were treated with copper gluconate (0.15 mg/kg) or vehicle by intraperitoneal injection 5 hr before LPS challenge and then given DSF (50 mg/kg) intraperitoneally dissolved in sesame oil or vehicle 4 hr before and just before LPS challenge (15 mg/kg intraperitoneally). Peritoneal cells were collected by rinsing the peritoneal cavity with ice cold PBS containing 3% FBS 6 hr after LPS challenge. To measure cytokines, blood samples were collected by tail vein bleed 12 hr post LPS challenge and allowed to clot at room temperature. Sera obtained after centrifugation at 2,000×g for 10 min were analysed for inflammatory cytokines by ELISA.
Cell death was determined by CytoTox96 assay. […] Statistical analysis was performed using the log-rank test (In FIGS. 14, 16, 17, mice/group). […] Serum was obtained 12 hrs post LPS challenge. Shown are mean±s.d. […] Statistical analysis was performed using the log-rank test (8 mice/group).

Experiment [6] has as its target C38A GSDMD (Homo sapiens, UniProt P57764, C38A). As to the kind of experiment: Liposome leakage assay, C38A GSDMD plus caspase-11. The experiment is classed as biochemical.
Procedure: as §1

pIC50: −log10 of the molar value.

Chain of C38A GSDMD (P57764 whole entry C38A): as the sequence (P57764 whole entry C191A) above, with C38A, A191C counted along it

In the case of `Cc1ccc(S(=O)(=O)/C=C/C#N)cc1` [Bay 11-7082], in experiment [1], the NF-κB activation result is reported as “had a stronger effect”, the pro-IL-1β induction result is reported as “blocked pro-IL-1β induction” and the NLRP3 induction entry is reported as “blocked”. The “fold loss of liposome leakage inhibition, C191A versus WT GSDMD” value in experiment [2] worked out at 2 fold.

As a reminder, the pIC50 is −log10 of the IC50, conventionally taken in molar units. For `CCN(CC)C(=S)SSC(=S)N(CC)CC` [C-23, Tetraethylthiuram disulfide], in experiment [3], the “cell death triggered by the AIM2 inflammasome” value is listed as “impaired cell death in a dose-dependent manner”. Also, in experiment [4], the “LPS transfection-induced IL-1β secretion” value is on record as “potency comparable to the pan-caspase inhibitor z-VAD-fmk”. In addition, the survival result in experiment [5] (LPS 15 mg/kg, 50 mg/kg ip 24 and 4 hrs before, 96 hrs) is “all the disulfiram-treated mice survived”; in experiment [5] (LPS 25 mg/kg, 50 mg/kg ip 24 and 4 hrs before), 5 of 8; in experiment [5] (LPS 25 mg/kg, 50 mg/kg ip post LPS, with copper gluconate 0.15 mg/kg), 2 of 8; in experiment [5] (LPS 25 mg/kg, 50 mg/kg ip post LPS, without copper), “died”; in experiment [5] (LPS 50 mg/kg, 50 mg/kg ip 24 and 4 hrs before), 1 of 8. In addition, the “survival of Casp11−/− mice” value in experiment [5] (LPS challenge) was “did not significantly affect the survival”. Besides, the “survival of Gsdmd−/− mice” value in experiment [5] (LPS challenge) is given as “did not significantly affect the survival”. In addition, in experiment [5] (lethal LPS challenge), the “survival of Casp1−/− mice” value was “protected”. Besides, the pIC50 in experiment [6] was roughly 6.52. Further, the NF-κB activation entry in experiment [1] is recorded as “inhibited NF-κB activation”. In experiment [1] (listed as disulfiram), the pro-IL-1β induction result is “blocked pro-IL-1β induction”. Besides, in experiment [1], the NLRP3 induction result was “blocked”.

The record behind these values is patent US20210267996A1, “Compounds for inhibition of inflammation” (Children`s Medical Center Corporation, priority 2018, published 2021).
